Test results as given in patent US20150087722A1, “TREATMENT FOR BREAST TUMOR CELL METASTASIS” (China Medical University, priority 2012, published 2015).
Where two headings read alike, the source gives them in different places.

How the values were obtained:
[1] = system: human normal breast cells MCF-10A; assay: MTT cell viability assay; format: cell-based
Method: (§1) The breast tumor cells (MDA-MB-231, MDA-MB-435, MDA-MB-453, MDA-MB-468 and MCF-7) were commercially obtained from the bioresource collection and research center (BCRC), and were cultured in a 10% FBS-DMEM culture medium (i.e., a DMEM culture medium including 10% fetal bovine serum (FBS)). The human breast cell MCF-10A was cultured in a 5% FBS-DMEM culture medium (including F12, insulin, hydrocortisol and epidermal growth factor). An environment of 5% CO2 was kept in the incubator at a constant temperature of 37° C. When a certain number of cells were generated in culture, the culture medium was removed after being centrifuged for 10 min at a rate of 900 rpm. The culture medium was replaced in 24 h before the experiment, and the number of cells was counted by a hemocytometer.
(§2) The cell viability was determined by a method of […] (MTT assay). The test method for assaying cell viability refers to steps provided by Parada-Turska et al.
(§3) The breast tumor cells MDA-MB-231 were inoculated in a 24-well plate (2.5×10^5 cells/well), and the next day after cells were adhered to the wall of the plate, the cells were washed with PBS. 1% FBS-DMEM culture medium was then added so as to synchronize cells. The next day compound II having different concentrations were added into the wells, and the cells were subsequently cultured in an atmosphere of 5% CO2 at 37° C. for 24 h. The cells were washed with PBS once, and 400 μl MTT agent was added in each well so as to react for 4 h. Then 400 μl 10% SDS was added in each well so as to react for 12 h. 200 μl supernatant was taken from the well and then added into a 96-well microplate, so as to measure the absorbance at 570 nm.

[2] = system: breast tumor cells MCF-7; assay: MTT cell viability assay; format: cell-based; details: Homo sapiens, MCF7
Method: as §1, §2, §3

[3] = system: EMT-related proteins in breast tumor cells MDA-MB-231; assay: western blotting of EMT-related proteins; format: cell-based, human; details: MDA-MB-231, 0.5, 1 and 2 μM, 24 h, with dose increasing
Method: FIG. 2A illustrates the expression results of EMT-related proteins in breast tumor cells MDA-MB-231 after the breast tumor cells MDA-MB-231 have been respectively cultured under compound II having concentrations of 0, 0.5, 1 and 2 μM for 24 h; and FIG. 2B illustrates the expression results of EMT-related proteins in breast tumor cells MCF-7 after the breast tumor cells MCF-7 have been respectively cultured under the compound II having concentrations of 0, 10, 15 and 20 μM for 24 h. FIG. 3A illustrates the western blotting results of EMT-related proteins in the breast tumor cells MDA-MB-468, where the breast tumor cells MDA-MB-468 are treated with the compound I having concentrations of 0, 0.5, 1 and 2 μM for 24 h, and FIG. 3B illustrates the western blotting results of EMT-related proteins in the breast tumor cells MDA-MB-435, where the breast tumor cells MDA-MB-435 are treated with the compound I having concentrations of 0, 2.5, 5 and 7.5 μM for 24 h. […] Then luminescence image equipment was used, where the PVDF was placed onto a black metal plate by a plastic pincer and the face including protein was upwards, a 1:1 mixed Chemiluminesent Substrate was added into the membrane and the exposure time depends on the fluorescence intensity of antibodies. […]

IC50 ([2]; 0-40 μM for 24 h, FIG. 1A, read-out: IC50 for inhibiting the MCF-7): ~30 µM
IC50 ([2]; viability, MCF-7 cell strain, Table 1, read-out: IC50): 27.7 µM
SMILES: COC1=C(OC)C(=O)C(C)=C(C)C1=O [compound II]
IC50 ([1]; MCF-10A, 0-40 μM for 24 h, FIG. 1A, read-out: IC50 for inhibiting the normal breast cells MCF-10A): ~25 µM
IC50 ([1]; viability, MCF-10A cell strain, Table 1, read-out: IC50): 24.1 µM
expression amount of E-cadherin, occludin and ICAM [3]: increased
expression amount of proteins facilitating tumor cell proliferation (Twist, Snail, vimentin, β-catenin, VEGF) [3]: decreased
